Structures are written as SMILES.

From patent US20230293469A1, “NOVEL PHARMACEUTICAL COMPOSITIONS” (NEUROPRO THERAPEUTICS, INC., priority 2020, published 2023) come the findings set out here.

The test system of this series is Microsomes. Briefly: Proposed metabolite structures and biotransformation pathways (rat, dog, human microsomes). Type of series: in vitro ADME. The following applies: rat, dog, human microsomes, 10 uM, 1 hour. As for the experimental part:
Incubation of Test Compound in Microsomes • 1. Compound final concentration: 10 uM. • 2. Microsomes concentration 1 mg/mL. • 3. Incubate for 1 hour, with an NADPH regenerating system. • 4. 0.5 mL of incubation mixture at 0 min and 1 hour, mixed with 0.5 mL of acetonitrile. • 5. Vortex, and centrifuge at 13200 rpm for 10 min. • 6. Supernatant was transferred to a clean vial for LCMS analysis NADPH regenerating system (cofactor; consisting of NADP [0.340 mg/mL], G6P [1.56 mg/mL], and G6PDH [0.4 U/mL] solutions)
LC-MS/MS Method: • HPLC Column: Agilent, Polaris 3 C18-A, 150×2.0 mm (S/N: 533819), made in Netherlands. • Guard Column: Agilent, MonoChrom 3 C18 MetaGuard, 10×2.0 mm (S/N: 556145) • Column temperature: 40° C. • Mobile Phase A: 5 mM ammonium format in water (Optima) • Mobile Phase B: acetonitrile (Optima) • Flow rate: 0.2 mL/min • Gradient (Table on right) • MS: Thermo Q Exactive Plus.
Summary of Proposed Metabolite Structures and Biotransformation Pathway

In the case of `CCCCNc1cc(C(=O)N(Cc2ccccc2)Cc2ccccc2)cc(S(N)(=O)=O)c1Oc1ccccc1` [NPT-2042, N,N-Dibenzyl 3-Aminosulfonyl-5-butylamino-4-phenoxybenzamide], the Major biotransformation pathways result is “De-alkylation, Mono-oxidation, and Mono-oxidation and De-alkylation”.
